# Reference: the supplement of paper PMC10307832
# What was measured:
# Assay in all cases: relative viability (nuclei count vs DMSO), 5 days (fraction); higher = more cells survive
# [1] = compound: CC1(COc2ccc3c(c2)ncn3-c2ccc3cccc(N4CCC(N)CC4)c3n2)COC1 [Crenolanib] + Nc1ncn([C@H]2C[C@H](O)[C@@H](CO)O2)c(=O)n1 [Decitabine] (partner 2 µM)
# In short: (§1)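 Lung cancer cell lines in 1536-well plates were dosed by pin tool the day after seeding, either with one drug alone or with a fixed anchor-drug dose plus five library-drug doses (not always all listed) in √10 steps. After 5 days, cells were fixed and their nuclei stained in one step (final 0.05% Triton X-100, 1% formaldehyde, 1 ug/ml Hoechst), then counted on 4× images. Relative viability is the nuclei count in treated wells divided by that in vehicle wells. Values are medians of duplicate plates.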
# [2] = compound: CC1(COc2ccc3c(c2)ncn3-c2ccc3cccc(N4CCC(N)CC4)c3n2)COC1 [Crenolanib] + CC(=O)Nc1cccc(-n2c(=O)n(C3CC3)c(=O)c3c(Nc4ccc(I)cc4F)n(C)c(=O)c(C)c32)c1 [Trametinib] (partner 0.02 µM)
# In short: as §1
# [3] = compound: CC1(COc2ccc3c(c2)ncn3-c2ccc3cccc(N4CCC(N)CC4)c3n2)COC1 [Crenolanib] + N=C(N)NC(=N)NCCc1ccccc1 [Phenformin] (partner 250 µM)
# In short: as §1
# [4] = compound: O=C1NC(=O)[C@@H](c2cn3c4c(cccc24)CCC3)[C@@H]1c1c[nH]c2ccccc12 [Tivantinib] + CC1(C)CCC(c2ccc(Cl)cc2)=C(CN2CCN(c3ccc(C(=O)NS(=O)(=O)c4ccc(N[C@H](CCN5CCOCC5)CSc5ccccc5)c(S(=O)(=O)C(F)(F)F)c4)cc3)CC2)C1 [Navitoclax] (partner 0.5 µM)
# In short: as §1
Cell Line,relative viability ([1]; first compound 0.01 µM),relative viability ([1]; first compound 0.1 µM),relative viability ([1]; first compound 0.3162 µM),relative viability ([1]; first compound 1 µM),relative viability ([2]; first compound 0.01 µM),relative viability ([2]; first compound 0.1 µM),relative viability ([2]; first compound 0.3162 µM),relative viability ([2]; first compound 1 µM),relative viability ([3]; first compound 0.01 µM),relative viability ([3]; first compound 0.03162 µM),relative viability ([3]; first compound 0.3162 µM),relative viability ([3]; first compound 1 µM),relative viability ([4]; first compound 0.01 µM),relative viability ([4]; first compound 0.03162 µM),relative viability ([4]; first compound 0.1 µM),relative viability ([4]; first compound 0.3162 µM),relative viability ([1]; first compound 0.03162 µM),relative viability ([2]; first compound 0.03162 µM),relative viability ([3]; first compound 0.1 µM)
NCI-H2405,0.775,0.671,0.781,0.686,0.698,0.483,0.621,0.57,0.359,0.394,0.284,0.362,1.17,0.766,0.973,0.305,–,–,–
NCI-H2009,0.395,0.367,0.364,0.416,0.325,0.308,0.223,0.235,0.497,0.488,0.4,0.408,1.08,1.22,1.2,1.16,0.367,0.296,0.46
NCI-H441,0.259,0.277,0.251,0.243,0.537,0.425,0.485,0.408,0.771,0.881,0.936,0.633,0.737,0.869,–,0.439,0.276,0.479,0.955
PC-14,0.167,0.212,0.21,0.226,0.91,0.679,0.716,0.647,0.628,0.46,0.473,0.314,1.05,0.926,0.981,0.947,0.195,0.619,0.544
HCC-15,0.625,0.603,0.689,0.65,0.4,0.379,0.402,0.38,0.51,0.506,0.469,0.327,0.728,0.628,0.684,0.698,0.621,0.394,0.447
NCI-H2126,0.544,0.61,0.659,0.586,0.596,0.564,0.608,0.62,0.533,0.536,0.51,0.455,0.822,0.821,0.846,0.713,0.564,0.578,0.51
NCI-H1915,0.26,0.275,0.247,0.264,0.29,0.289,0.304,0.275,0.359,0.37,0.386,0.398,0.789,0.796,0.771,0.798,0.275,0.324,0.365
ChaGo-K-1,0.56,0.533,0.513,0.556,0.877,0.868,0.916,0.846,0.533,0.495,0.42,0.497,1.11,0.845,0.97,1.1,0.489,0.895,0.536
